Columns and labels:
[1] = system: human embryonic stem cell derived neural stem cells (NSCs); test: Neural Stem Cell Proliferation Assay (neurogenesis assay, ATP levels by CellTiterGlo); type: cell-based; conditions: 96 h, compound concentration at which 150% activity of control (100%) is reached, NSC proliferation by ATP level after 4 days incubation, dose response 8 μM to 8 nM
Outline: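 Human ESC-derived NSCs (dual SMAD inhibition) seeded 4 h before compounds, 11-point 2-fold series 8 μM–8 nM; 4 days at 37 °C, 5% CO2. ATP by CellTiterGlo luminescence as cell-number proxy, response as % of media control (0.25% DMSO); EC150 = concentration giving 150% of control.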

Structure (SMILES) | EC (150% of control) [1] | melting point
COc1ccc(-c2cc(F)cc3c(C)c4n(c23)CCNC4=O)cn1 [Example 146, 8-Fluoro-6-(6-methoxy-pyridin-3-yl)-10-methyl-3,4-dihydro-2H-pyrazino[1,2-a]indol-1-one] | 0.02 µM | 226 °C
O=C1NCCCn2c1cc1c(F)c(F)cc(-c3ccc(F)cc3)c12 [Example 36, 9,10-Difluoro-7-(4-fluoro-phenyl)-2,3,4,5-tetrahydro-[1,4]diazepino[1,2-a]indol-1-one] | 3.9 µM | 287 °C
COc1ccc(-c2cc(C)cc3cc4n(c23)CCNC4=O)cc1 [Example 61, 6-(4-Methoxy-phenyl)-8-methyl-3,4-dihydro-2H-pyrazino[1,2-a]indol-1-one] | 0.059 µM | 245 °C
Cc1c2n(c3c(-c4ccc(OC(F)(F)F)cc4)cc(Cl)cc13)CCNC2=O [Example 133, 8-Chloro-10-methyl-6-(4-trifluoromethoxy-phenyl)-3,4-dihydro-2H-pyrazino[1,2-a]indol-1-one] | 0.004 µM | 212 °C
Cc1c2n(c3c(-c4cncnc4)cc(F)cc13)CCNC2=O [Example 155, 8-Fluoro-10-methyl-6-pyrimidin-5-yl-3,4-dihydro-2H-pyrazino[1,2-a]indol-1-one] | 0.57 µM | 289 °C
Cc1c2n(c3c(-c4ccc(Cl)cc4)cc(Cl)cc13)CCNC2=O [Example 65, 8-Chloro-6-(4-chloro-phenyl)-10-methyl-3,4-dihydro-2H-pyrazino[1,2-a]indol-1-one] | 0.019 µM | 236.5 °C
Cc1cc(-c2cc(C#N)cc3cc4n(c23)CCCNC4=O)ccc1F [Example 235, 7-(4-Fluoro-3-methylphenyl)-1-oxo-2,3,4,5-tetrahydro-[1,4]diazepino[1,2-a]indole-9-carbonitrile] | 0.77 µM | 223.5 °C
COc1ccc(-c2cc(C#N)cc3c(C)c4n(c23)CCCNC4=O)cc1 [Example 262, 7-(4-Methoxyphenyl)-11-methyl-1-oxo-2,3,4,5-tetrahydro-[1,4]diazepino[1,2-a]indole-9-carbonitrile] | 0.029 µM | 277 °C
Cc1cc(-c2cc(C#N)cc3cc4n(c23)CCNC4=O)ccc1F [Example 231, 6-(4-Fluoro-3-methylphenyl)-1-oxo-3,4-dihydro-2H-pyrazino[1,2-a]indole-8-carbonitrile] | 0.058 µM | 290 °C
Cc1c2n(c3c(-c4ccc(F)c(F)c4)cc(Cl)cc13)CCCNC2=O [Example 68, 9-Chloro-7-(3,4-difluoro-phenyl)-11-methyl-2,3,4,5-tetrahydro-[1,4]diazepino[1,2-a]indol-1-one] | 0.12 µM | 254 °C
N#Cc1cc(-c2ccc(F)c(F)c2F)c2c(c1)cc1n2CCCNC1=O [Example 284, 1-Oxo-7-(2,3,4-trifluorophenyl)-2,3,4,5-tetrahydro-[1,4]diazepino[1,2-a]indole-9-carbonitrile] | 0.16 µM | 187 °C
Cc1ccc(-c2cc(C#N)cc3cc4n(c23)CCCNC4=O)cc1 [Example 287, 7-(4-Methylphenyl)-1-oxo-2,3,4,5-tetrahydro-[1,4]diazepino[1,2-a]indole-9-carbonitrile] | 0.22 µM | 240.5 °C
Cc1c2n(c3c(-c4cnc(N)nc4)cc(Cl)cc13)CCNC2=O [Example 143, 6-(2-Amino-pyrimidin-5-yl)-8-chloro-10-methyl-3,4-dihydro-2H-pyrazino[1,2-a]indol-1-one] | 0.32 µM | 316 °C
COc1cc(-c2ccc(F)cc2)c2c(c1)cc1n2CCNC1=O [Example 210, 6-(4-Fluorophenyl)-8-methoxy-3,4-dihydro-2H-pyrazino[1,2-a]indol-1-one] | 2.29 µM | 220 °C
N#Cc1cccc(-c2cc(C#N)cc3cc4n(c23)CCNC4=O)c1 [Example 194, 6-(3-Cyanophenyl)-1-oxo-3,4-dihydro-2H-pyrazino[1,2-a]indole-8-carbonitrile] | 1.08 µM | 253 °C

From patent publication US9284321B2, “Piperazino[1,2-a]indol-1-ones and [1,4]diazepino[1,2-a]indol-1-one” (Hoffmann-La Roche Inc., priority 2012, dated 2016)
